Data published in PubChem BioAssay (NCI).
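48-hour exposure; five concentrations; linearly interpolated endpoints. TGI: total growth inhibition.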

Tests used:
Assay in all cases: NCI tumour cell line growth inhibition, 48 h
NCI-H23 lung = test system: NCI-H23 lung
BT-549 breast = test system: BT-549 breast
SR leukemia = test system: SR leukemia
EKVX NSCLC = test system: EKVX NSCLC
K-562 leukemia = test system: K-562 leukemia
MDA-MB-231 breast = test system: MDA-MB-231 breast
PC-3 prostate = test system: PC-3 prostate
IGROV1 ovarian = test system: IGROV1 ovarian
SW-620 colon = test system: SW-620 colon
SF-268 CNS = test system: SF-268 CNS
NCI-H522 lung = test system: NCI-H522 lung
OVCAR-4 ovarian = test system: OVCAR-4 ovarian
NCI/ADR-RES ovarian = test system: NCI/ADR-RES ovarian
SNB-19 CNS = test system: SNB-19 CNS
SF-539 CNS = test system: SF-539 CNS
KM12 colon = test system: KM12 colon
SK-MEL-2 melanoma = test system: SK-MEL-2 melanoma
A498 renal = test system: A498 renal
ACHN renal = test system: ACHN renal
HS 578T breast = test system: HS 578T breast

Row | SMILES | TGI (NCI-H23 lung) [µM] | TGI (BT-549 breast) [µM] | TGI (SR leukemia) [µM] | TGI (EKVX NSCLC) [µM] | TGI (K-562 leukemia) [µM] | TGI (MDA-MB-231 breast) [µM] | TGI (PC-3 prostate) [µM] | TGI (IGROV1 ovarian) [µM] | TGI (SW-620 colon) [µM] | TGI (SF-268 CNS) [µM] | TGI (NCI-H522 lung) [µM] | TGI (OVCAR-4 ovarian) [µM] | TGI (NCI/ADR-RES ovarian) [µM] | TGI (SNB-19 CNS) [µM] | TGI (SF-539 CNS) [µM] | TGI (KM12 colon) [µM] | TGI (SK-MEL-2 melanoma) [µM] | TGI (A498 renal) [µM] | TGI (ACHN renal) [µM] | TGI (HS 578T breast) [µM]
1 | CC1(C)OCC2(CO1)CSCCCSCC1(COC(C)(C)OC1)CSCCCSC2 | > 100 | > 100 | > 100 | > 100 | > 100 | > 100 | > 100 | > 100 | > 100 | > 100 | > 100 | > 100 | > 100 | > 100 | > 100 | > 100 | – | – | – | –
2 | NCCC(=O)N[C@H](Cc1cc(O)c(O)c(SCC(NC(=O)CC[C@H](N)C(=O)O)C(=O)NCC(=O)O)c1)C(=O)O (stereo partly specified) | > 50 | > 50 | – | > 50 | > 50 | > 50 | > 50 | > 50 | > 50 | > 50 | > 50 | > 50 | > 50 | > 50 | – | > 50 | > 50 | > 50 | > 50 | –
3 | CC1(c2cccc3c2C2(O)C=CC4(CCC32)OCCO4)OCCO1 (stereo unspecified) | > 100 | – | – | > 100 | > 100 | – | – | > 100 | > 100 | > 100 | > 100 | > 100 | – | > 100 | > 100 | > 100 | > 100 | > 100 | > 100 | –
4 | CC1(C)CC(=O)/C(=C/C2CCNC2=S)C(=O)N1 (stereo unspecified) | > 100 | – | > 100 | > 100 | > 100 | > 100 | > 100 | > 100 | > 100 | > 100 | > 100 | > 100 | > 100 | > 100 | > 100 | > 100 | > 100 | > 100 | > 100 | > 100
5 | O=S1(=O)NNC(=NCc2ccc(Cl)c(Cl)c2)c2ccccc21 | – | – | 47.1 | > 100 | > 100 | – | – | > 100 | > 100 | > 100 | – | > 100 | – | > 100 | > 100 | > 100 | > 100 | > 100 | > 100 | –
6 | COC(=O)CCC1(C)C2CCC1(C)/C(=N/O)C2 (stereo unspecified) | > 100 | > 100 | – | > 100 | > 100 | > 100 | > 100 | > 100 | > 100 | > 100 | > 100 | > 100 | > 100 | > 100 | – | > 100 | > 100 | – | > 100 | > 100
7 | O=C1CSC(/C=C/c2ccccc2)N1c1ccc(-c2ccc(-n3c(-c4ccccc4)nc4ccccc4c3=O)cc2)cc1 (stereo unspecified) | > 100 | 39.2 | > 100 | 73.1 | > 100 | > 100 | 65.3 | 75.6 | 65.1 | > 100 | 42.9 | 63 | > 100 | 62.3 | – | 35.8 | 38.6 | > 100 | 94.9 | –
8 | COc1ccc(N(C)CN(C)c2nc(N(C)C)nc(N(C)C)n2)cc1 | > 100 | – | > 100 | > 100 | > 100 | – | – | > 100 | > 100 | > 100 | > 100 | > 100 | – | > 100 | > 100 | > 100 | > 100 | > 100 | > 100 | –
9 | COC(=O)Nc1nc2ccc(Oc3ccc4nc(NC(=O)OC)[nH]c4c3)cc2[nH]1 | > 100 | > 100 | > 21.9 | > 100 | > 45.2 | 11 | > 78.5 | > 54.4 | 11.2 | – | > 100 | > 100 | > 100 | > 100 | 1.69 | > 62.5 | > 100 | > 51.4 | > 100 | –
10 | CC1C2=C(CC(C)(C)CC2=O)NC2=C1C(=O)CC(C)(C)C2 | > 100 | > 100 | > 100 | > 100 | > 100 | – | > 100 | > 100 | > 100 | > 100 | – | > 100 | > 100 | > 100 | > 100 | > 100 | – | > 100 | > 100 | > 100
11 | CNC(C)Cc1ccccc1O (stereo unspecified) | > 100 | – | > 100 | > 100 | > 100 | – | – | > 100 | > 100 | > 100 | > 100 | > 100 | – | > 100 | > 100 | > 100 | > 100 | > 100 | > 100 | –
12 | CCCCCCCC(=O)OC[C@@H](C[As](=O)(O)O)OC(=O)CCCCCCC | 26.4 | – | 40.5 | 84.4 | 51.4 | – | – | 16.4 | 25.9 | 20.3 | 4.83 | 28.9 | – | 27.3 | 22.3 | – | – | 24 | 25.6 | –
13 | COc1cc2cc[n+](C)c(Cc3ccccc3)c2cc1OC | > 100 | – | – | > 100 | > 100 | – | – | > 100 | > 100 | > 100 | > 100 | > 100 | – | > 100 | > 100 | > 100 | > 100 | > 100 | > 100 | –
14 | C#CCSc1nc(N)c2ncn(C3OC(CO)C(O)C3O)c2n1 (stereo unspecified) | > 100 | – | > 100 | > 100 | > 100 | – | – | > 100 | > 100 | > 100 | > 100 | > 100 | – | > 100 | – | > 100 | – | > 100 | > 100 | –
15 | CCCCC1Cc2ccccc2-c2n1c1ccccc1[n+]2C (stereo unspecified) | 42.5 | – | 58.5 | > 100 | > 100 | > 100 | 43 | > 100 | > 100 | > 100 | 27.9 | > 100 | > 100 | – | > 100 | > 100 | 35.7 | > 100 | > 100 | 81.5
16 | Oc1[nH]c2ccccc2c1N=NC(=S)N1CCCCC1 | 9.14 | – | 4.31 | 9.75 | – | 2.79 | 10.3 | 1.77 | 8.63 | 14.3 | 15.5 | 4.48 | 0.635 | 12.5 | 1.49 | 1.62 | 6.12 | 1.99 | 5.97 | –
17 | O=c1[nH]c(=O)n(C2CC(O)C(CO)O2)cc1NN=NCCc1ccccc1 (stereo unspecified) | > 100 | – | > 100 | > 100 | > 100 | > 100 | > 100 | > 100 | – | > 100 | > 100 | > 100 | > 100 | > 100 | – | > 100 | – | – | > 100 | > 100
18 | CNC(=O)CCNC(=O)CCC(=O)N(C)C | > 100 | – | > 100 | – | > 100 | > 100 | > 100 | – | > 100 | > 100 | > 100 | > 100 | > 100 | > 100 | > 100 | > 100 | > 100 | > 100 | > 100 | –
19 | O=c1cc(CO)n(CCc2c[nH]c3ccccc23)cc1O | > 100 | > 100 | – | > 100 | – | > 100 | > 100 | > 100 | > 100 | 53.2 | 78.7 | – | 99.6 | > 100 | > 100 | > 100 | > 100 | – | > 100 | > 100
20 | CSc1ccccc1P(c1ccccc1SC)c1ccccc1SC | > 100 | > 100 | > 100 | > 100 | > 100 | > 100 | – | – | > 100 | > 100 | – | > 100 | > 100 | > 100 | > 100 | > 100 | > 100 | > 100 | > 100 | > 100
21 | NC(=O)c1cc(-c2ccc(-n3ccnc3)cc2)n[nH]c1=O | > 100 | > 100 | > 100 | > 100 | – | – | > 100 | > 100 | > 100 | > 100 | > 100 | > 100 | – | > 100 | > 100 | – | – | > 100 | > 100 | > 100
22 | N=C(N)C1CN(CCc2cnc[nH]2)C(=O)NC1=O (stereo unspecified) | > 100 | > 100 | > 100 | > 100 | – | – | > 100 | > 100 | > 100 | > 100 | > 100 | > 100 | – | > 100 | > 100 | > 100 | – | > 100 | > 100 | > 100
23 | COC1(C(C)(C)C)C=C(C(C)(C)C)P(=O)(O)O1 (stereo unspecified) | > 100 | – | > 100 | > 100 | > 100 | – | > 100 | > 100 | > 100 | > 100 | > 100 | > 100 | > 100 | > 100 | > 100 | > 100 | > 100 | > 100 | > 100 | > 100
24 | Cc1cccc2[nH]c3cc(O)cc(O)c3c(=O)c12 | > 10 | > 10 | – | – | > 10 | > 10 | > 10 | > 10 | > 10 | > 10 | > 10 | > 10 | > 10 | > 10 | > 10 | > 10 | > 10 | – | > 10 | > 10
25 | O=C(O)c1c[nH]c2c(=O)[nH]cnc12 | > 100 | – | > 100 | > 100 | > 100 | – | – | > 100 | > 100 | > 100 | > 100 | – | – | > 100 | – | > 100 | > 100 | – | > 100 | –
26 | COc1ccc(C2=C(Cl)c3cc(OC)c(OC)cc3C2=O)cc1OC | 26.7 | 29.5 | > 100 | 37.9 | – | 36.5 | – | 32.1 | 31.3 | 35.9 | 27 | 25.5 | 51.5 | > 100 | 35.9 | 32.2 | 28 | 32 | 17.2 | 87.4
27 | COc1ccc(-c2cnoc2-c2ccc(OC)c(OC)c2)cc1OC | 3.97 | – | – | 20.7 | > 100 | – | – | 9.53 | > 37.5 | 15 | 2.1 | > 100 | – | 98.6 | 3.3 | 16.9 | 42.7 | 21.2 | > 74.2 | –
28 | COc1ccc(-c2cc(-c3ccc(Cl)cc3)n(C3OC(CO)C(O)C(O)C3O)c(=S)c2C#N)cc1 (stereo unspecified) | – | > 100 | > 100 | – | > 100 | > 100 | > 100 | > 100 | > 100 | > 100 | – | > 100 | – | > 100 | > 100 | > 100 | 97.9 | – | > 100 | > 100
29 | COc1cc(C2S/C(=C/c3ccccc3)C(=O)N2c2cc(Cl)ccc2Cl)cc(OC)c1OC (stereo unspecified) | > 100 | > 100 | > 100 | > 100 | > 100 | > 100 | > 100 | 68.3 | > 100 | 53.1 | 50.4 | – | > 100 | > 100 | 42.9 | 38.8 | > 100 | > 100 | > 100 | –
